The values that follow come from patent US20150320770A1, “NOVEL COMPOSITIONS AND METHODS FOR TREATING PROSTATE CANCER” (Tokai Pharmaceuticals, Inc., priority 2011, published 2015).

The nature of this data set: API solubility assessment in common solvents. Format: physicochemical. How it is done: The solubility of the API was assessed in several common solvents systems to ensure obtaining the maximum API concentration for the spray drying process. […] Subsequently this binary solvent mixture was changed to the 2:1, methanol:acetone mixture due to long secondary drying times observed with the 2:1, methanol:THF system.

Consider `C[C@]12CC[C@H](O)CC1=CCC1C2CC[C@]2(C)C(n3cnc4ccccc43)=CCC12` (stereo partly drawn) [Compound (1), 3-β-Hydroxy17-(1H-benzimidazol-1-yl)androsta-5,16-diene], for which the “API Solubility (%)” value (2:1 Acetone:Methanol) stood at 4.16%; the “API Solubility (%)” value (2:1 Methanol:Acetone) came out at 7.28%; the “API Solubility (%)” value (2:1 Methanol:Tetrahydrofuran) came out at 16.64%; the “API Solubility (%)” value (Acetone) is listed as 1.04%; the “API Solubility (%)” value (Ethanol) is 4.68%; the “API Solubility (%)” value (Ethyl Acetate) came out at 0%. For the same compound, the “API Solubility (%)” value reads like this: (Methanol) 4.16%; (Tetrahydrofuran) 7.28%.
